{
  "source": "patent US20260285850A1",
  "about": "“SUBSTITUTED OXAZOLIDINONES AND IMIDAZOLINONES AS HERBICIDES” (FMC CORPORATION, priority 2023, published 2026)",
  "format_in_all_cases": "in vivo",
  "key": {"[1]": {"test_system": "oat, wild (wild oat, Avena fatua)", "assay": "Test A postemergence application, visual injury rating 0-100", "outline": "(§1)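 Greenhouse test: loam/sand pots received a surfactant-containing formulation, as a preemergence directed soil spray or a postemergence spray on young plants. Injury was judged visually at day 10 relative to untreated controls.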"}, "[2]": {"test_system": "blackgrass (Alopecurus myosuroides)", "assay": "Test A postemergence application, visual injury rating 0-100", "outline": "as §1"}, "kochia (Bassia scoparia) [3]": {"test_system": "kochia (Bassia scoparia)", "assay": "Test A postemergence application, visual injury rating 0-100", "outline": "as §1"}, "[4]": {"test_system": "green foxtail (Setaria viridis)", "assay": "Test A postemergence application, visual injury rating 0-100", "outline": "as §1"}, "[5]": {"test_system": "palmer (palmer amaranth, palmer pigweed, Amaranthus palmeri)", "assay": "Test A postemergence application, visual injury rating 0-100", "outline": "as §1"}, "soybean (Glycine max) [6]": {"test_system": "soybean (Glycine max)", "assay": "Test A postemergence application, visual injury rating 0-100", "outline": "as §1"}, "[7]": {"test_system": "barnyardgrass (Echinochloa crus-galli)", "assay": "Test A postemergence application, visual injury rating 0-100", "outline": "as §1"}, "[8]": {"test_system": "galium (catchweed bedstraw, Galium aparine)", "assay": "Test A postemergence application, visual injury rating 0-100", "outline": "as §1"}, "[9]": {"test_system": "ragweed (common ragweed, Ambrosia artemisiifolia)", "assay": "Test A postemergence application, visual injury rating 0-100", "outline": "as §1"}, "[10]": {"test_system": "ryegrass, Italian (italian ryegrass, Lolium multiflorum)", "assay": "Test A postemergence application, visual injury rating 0-100", "outline": "as §1"}, "corn (Zea mays) [11]": {"test_system": "corn (Zea mays)", "assay": "Test A postemergence application, visual injury rating 0-100", "outline": "as §1"}, "[12]": {"test_system": "wheat (Triticum aestivum)", "assay": "Test A postemergence application, visual injury rating 0-100", "outline": "as §1"}, "[13]": {"test_system": "horseweed (Erigeron canadensis)", "assay": "Test A postemergence application, visual injury rating 0-100", "outline": "as §1"}, "[14]": {"test_system": "barnyardgrass (Echinochloa crusgalli)", "assay": "Test B flooded paddy test, visual plant response rating 0-100", "settings": "250 g ai/ha, Flood, applied to paddy water, evaluated after 13 days", "outline": "(§2)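 Paddy-water application: test compounds went directly into water flooded 3 cm above the soil surface, with plants at 2 leaves. After a 13-day greenhouse period, responses were judged by eye relative to controls; a dash marks an untested entry.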"}, "[15]": {"test_system": "ducksalad (Heteranthera limosa)", "assay": "Test B flooded paddy test, visual plant response rating 0-100", "settings": "250 g ai/ha, Flood, applied to paddy water, evaluated after 13 days", "outline": "as §2"}, "rice (Oryza sativa)": {"test_system": "rice (Oryza sativa)", "assay": "Test B flooded paddy test, visual plant response rating 0-100", "settings": "250 g ai/ha, Flood, applied to paddy water, evaluated after 13 days", "outline": "as §2"}, "[16]": {"test_system": "sedge, umbrella (small-flower umbrella sedge, Cyperus difformis)", "assay": "Test B flooded paddy test, visual plant response rating 0-100", "settings": "250 g ai/ha, Flood, applied to paddy water, evaluated after 13 days", "outline": "as §2"}, "[17]": {"test_system": "oat, wild (wild oat, Avena fatua)", "assay": "Test A preemergence soil spray, visual injury rating 0-100", "settings": "10 days", "outline": "as §1"}, "[18]": {"test_system": "blackgrass (Alopecurus myosuroides)", "assay": "Test A preemergence soil spray, visual injury rating 0-100", "settings": "10 days", "outline": "as §1"}, "kochia (Bassia scoparia) [19]": {"test_system": "kochia (Bassia scoparia)", "assay": "Test A preemergence soil spray, visual injury rating 0-100", "settings": "10 days", "outline": "as §1"}, "[20]": {"test_system": "green foxtail (Setaria viridis)", "assay": "Test A preemergence soil spray, visual injury rating 0-100", "settings": "10 days", "outline": "as §1"}, "[21]": {"test_system": "palmer (palmer amaranth, palmer pigweed, Amaranthus palmeri)", "assay": "Test A preemergence soil spray, visual injury rating 0-100", "settings": "10 days", "outline": "as §1"}, "soybean (Glycine max) [22]": {"test_system": "soybean (Glycine max)", "assay": "Test A preemergence soil spray, visual injury rating 0-100", "settings": "10 days", "outline": "as §1"}, "[23]": {"test_system": "barnyardgrass (Echinochloa crus-galli)", "assay": "Test A preemergence soil spray, visual injury rating 0-100", "settings": "10 days", "outline": "as §1"}, "[24]": {"test_system": "ragweed (common ragweed, Ambrosia artemisiifolia)", "assay": "Test A preemergence soil spray, visual injury rating 0-100", "settings": "10 days", "outline": "as §1"}, "[25]": {"test_system": "ryegrass, Italian (italian ryegrass, Lolium multiflorum)", "assay": "Test A preemergence soil spray, visual injury rating 0-100", "settings": "10 days", "outline": "as §1"}, "corn (Zea mays) [26]": {"test_system": "corn (Zea mays)", "assay": "Test A preemergence soil spray, visual injury rating 0-100", "settings": "10 days", "outline": "as §1"}, "[27]": {"test_system": "wheat (Triticum aestivum)", "assay": "Test A preemergence soil spray, visual injury rating 0-100", "settings": "10 days", "outline": "as §1"}, "[28]": {"settings": "62 g ai/ha, postemergence, 10 days, 0 = no effect, 100 = complete control"}, "[29]": {"settings": "Postemergence, 16 g ai/ha, greenhouse 10 days, 0 no effect, 100 complete control"}, "[30]": {"settings": "62 g ai/ha, 0 = no effect, 100 = complete control"}},
  "data": [
    {"smiles": "C=CC1(C(=O)NC2C=CC(C(=O)O)C2)CN(c2cc(F)cc(F)c2)C(=O)O1", "note": "(mixture of isomers) [Compound 166]", "values": [
      {"measurement": "Oat, Wild plant response rating (0-100)", "setting": "[1]; [28]", "value": 90},
      {"measurement": "Oat, Wild plant response rating (0 to 100 scale)", "setting": "[1]; [29]", "value": 90},
      {"measurement": "Blackgrass plant response rating (0-100)", "setting": "[2]; [28]", "value": 90},
      {"measurement": "Blackgrass plant response rating (0 to 100 scale)", "setting": "[2]; [29]", "value": 70},
      {"measurement": "Kochia plant response rating (0-100)", "setting": "kochia (Bassia scoparia) [3]; [28]", "value": 80},
      {"measurement": "Kochia plant response rating (0 to 100 scale)", "setting": "kochia (Bassia scoparia) [3]; [29]", "value": 80},
      {"measurement": "Foxtail, Green plant response rating (0-100)", "setting": "[4]; [28]", "value": 90},
      {"measurement": "Foxtail, Green plant response rating (0 to 100 scale)", "setting": "[4]; [29]", "value": 30},
      {"measurement": "Pigweed, Palmer plant response rating (0-100)", "setting": "[5]; [28]", "value": 90},
      {"measurement": "Pigweed, Palmer plant response rating (0 to 100 scale)", "setting": "[5]; [29]", "value": 90},
      {"measurement": "Soybean plant response rating (0-100)", "setting": "soybean (Glycine max) [6]; [28]", "value": 100},
      {"measurement": "Soybean plant response rating (0 to 100 scale)", "setting": "soybean (Glycine max) [6]; [29]", "value": 80},
      {"measurement": "Barnyardgrass plant response rating (0-100)", "setting": "[7]; [28]", "value": 100},
      {"measurement": "Barnyardgrass plant response rating (0 to 100 scale)", "setting": "[7]; [29]", "value": 90},
      {"measurement": "Galium plant response rating (0-100)", "setting": "[8]; [28]", "value": 90},
      {"measurement": "Galium plant response rating (0 to 100 scale)", "setting": "[8]; [29]", "value": 70},
      {"measurement": "Ragweed plant response rating (0-100)", "setting": "[9]; [28]", "value": 70},
      {"measurement": "Ragweed plant response rating (0 to 100 scale)", "setting": "[9]; [29]", "value": 40},
      {"measurement": "Ryegrass, Italian plant response rating (0-100)", "setting": "[10]; [28]", "value": 90},
      {"measurement": "Ryegrass, Italian plant response rating (0 to 100 scale)", "setting": "[10]; [29]", "value": 60},
      {"measurement": "Corn plant response rating (0-100)", "setting": "corn (Zea mays) [11]; [28]", "value": 100},
      {"measurement": "Corn plant response rating (0 to 100 scale)", "setting": "corn (Zea mays) [11]; [29]", "value": 90},
      {"measurement": "Wheat plant response rating (0-100)", "setting": "[12]; [28]", "value": 90},
      {"measurement": "Wheat plant response rating (0 to 100 scale)", "setting": "[12]; [29]", "value": 90},
      {"measurement": "Horseweed plant response rating (0-100)", "setting": "[13]; [28]", "value": 80},
      {"measurement": "Horseweed plant response rating (0 to 100 scale)", "setting": "[13]; [29]", "value": 50},
      {"measurement": "Plant response rating, Barnyardgrass (0 to 100 scale, 0 is no effect and 100 is complete control)", "setting": "[14]", "value": 95},
      {"measurement": "Plant response rating, Ducksalad (0 to 100 scale, 0 is no effect and 100 is complete control)", "setting": "[15]", "value": 85},
      {"measurement": "Plant response rating, Rice (0 to 100 scale, 0 is no effect and 100 is complete control)", "setting": "rice (Oryza sativa)", "value": 80},
      {"measurement": "Plant response rating, Sedge, Umbrella (0 to 100 scale, 0 is no effect and 100 is complete control)", "setting": "[16]", "value": 95},
      {"measurement": "Oat, Wild plant response rating", "setting": "[17]; 16 g ai/ha, 0 to 100 scale", "value": 0},
      {"measurement": "Oat, Wild plant response rating (0-100)", "setting": "[17]; [30]", "value": 60},
      {"measurement": "Blackgrass plant response rating", "setting": "[18]; 16 g ai/ha, 0 to 100 scale", "value": 10},
      {"measurement": "Blackgrass plant response rating (0-100)", "setting": "[18]; [30]", "value": 70},
      {"measurement": "Kochia plant response rating", "setting": "kochia (Bassia scoparia) [19]; 16 g ai/ha, 0 to 100 scale", "value": 0},
      {"measurement": "Kochia plant response rating (0-100)", "setting": "kochia (Bassia scoparia) [19]; [30]", "value": 60},
      {"measurement": "Foxtail, Green plant response rating", "setting": "[20]; 16 g ai/ha, 0 to 100 scale", "value": 0},
      {"measurement": "Foxtail, Green plant response rating (0-100)", "setting": "[20]; [30]", "value": 50},
      {"measurement": "Pigweed, Palmer plant response rating", "setting": "[21]; 16 g ai/ha, 0 to 100 scale", "value": 20},
      {"measurement": "Pigweed, Palmer plant response rating (0-100)", "setting": "[21]; [30]", "value": 100},
      {"measurement": "Soybean plant response rating", "setting": "soybean (Glycine max) [22]; 16 g ai/ha, 0 to 100 scale", "value": 20},
      {"measurement": "Soybean plant response rating (0-100)", "setting": "soybean (Glycine max) [22]; [30]", "value": 90},
      {"measurement": "Barnyardgrass plant response rating", "setting": "[23]; 16 g ai/ha, 0 to 100 scale", "value": 40},
      {"measurement": "Barnyardgrass plant response rating (0-100)", "setting": "[23]; [30]", "value": 100},
      {"measurement": "Ragweed plant response rating", "setting": "[24]; 16 g ai/ha, 0 to 100 scale", "value": 0},
      {"measurement": "Ragweed plant response rating (0-100)", "setting": "[24]; [30]", "value": 30},
      {"measurement": "Ryegrass, Italian plant response rating", "setting": "[25]; 16 g ai/ha, 0 to 100 scale", "value": 0},
      {"measurement": "Ryegrass, Italian plant response rating (0-100)", "setting": "[25]; [30]", "value": 90},
      {"measurement": "Corn plant response rating", "setting": "corn (Zea mays) [26]; 16 g ai/ha, 0 to 100 scale", "value": 20},
      {"measurement": "Corn plant response rating (0-100)", "setting": "corn (Zea mays) [26]; [30]", "value": 60},
      {"measurement": "Wheat plant response rating", "setting": "[27]; 16 g ai/ha, 0 to 100 scale", "value": 60},
      {"measurement": "Wheat plant response rating (0-100)", "setting": "[27]; [30]", "value": 90}
    ]}
  ]
}
